Reference: US8653082B2, “6-phenyl-2-[((piperidin-4-ylmethyl)-piperazin-1YL) or piperazin 1-ylmethyl)-piperidin-1-yl)]-imidazo[2,1-B][1,3,4]thiadiazole derivatives and their use” (Urifer Ltd., priority 2009, dated 2014)

Assays:
Format in all cases: cell-based
Hep3B = test: XTT cell viability, Hep3B liver cancer cells; details: Homo sapiens; Hep3B liver cancer cell line; XTT test; compound in 30 mM HEPES pH=7, 0.25 to 10 μM; read-out: EC50 values on colon and liver cancer cells, Hep3B
Description: (§1) The effect of the compounds Z522-0249, Z522-0251, Erbitux and E-626-0342 on the growth profile of cancer cells which express Fer was tested. The cells that were tested were: the colon cancer cell lines HT29, HCT 116, RKO, SW620, and SW48 and the liver cancer cell line Hep3B. The effect of each of the three compounds (Z522-0249, Z522-0251 and E-626-0342) on FS11 cells, a non malingnant fibroblastic cell line, was also studied.
(§2) Cells were seeded in 96 well microplates and were left to grow untreated overnight. Z522-0249 and Z522-0251 were dissolved in 30 mM HEPES pH=7 and were then added to each well in a dose dependent manner from 0.25 to 10 μM. E626-0342 was dissolved in DMSO and was then added to each well in a dose dependent manner from 0.1 to 5 μM. The concentration of DMSO in each well was 0.4% v/v. Untreated cells and cells subjected to 30 mM HEPEs pH=7 or 0.4% DMSO alone, served as controls. The number of viable cells in each well was determined 48, 72, and 96 hours after compound addition, using the XTT test (Berridge, M. V. et al, 2005).

SW620 = test: XTT cell viability, SW620 colon cancer cells; details: Homo sapiens, SW-620; SW620 colon cancer cell line; XTT test; compound in 30 mM HEPES pH=7, 0.25 to 10 μM; read-out: EC50 values on colon and liver cancer cells, SW620
Description: as §1, §2

SW48 = test: XTT cell viability, SW48 colon cancer cells; details: Homo sapiens; SW48 colon cancer cell line; XTT test; compound in 30 mM HEPES pH=7, 0.25 to 10 μM; read-out: EC50 values on colon and liver cancer cells, SW48
Description: as §1, §2

HT29 = test: XTT cell viability, HT29 colon cancer cells; details: Homo sapiens, HT-29; HT29 colon cancer cell line; XTT test; compound in 30 mM HEPES pH=7, 0.25 to 10 μM; read-out: EC50 values on colon and liver cancer cells, HT29
Description: as §1, §2

RKO = test: XTT cell viability, RKO colon cancer cells; details: Homo sapiens; RKO colon cancer cell line; XTT test; compound in 30 mM HEPES pH=7, 0.25 to 10 μM; read-out: EC50 values on colon and liver cancer cells, RKO
Description: as §1, §2

HCT116 = test: XTT cell viability, HCT116 colon cancer cells; details: Homo sapiens, HCT-116; HCT116 colon cancer cell line; XTT test; compound in 30 mM HEPES pH=7, 0.25 to 10 μM; read-out: EC50 values on colon and liver cancer cells, HCT116
Description: as §1, §2

FS (normal fibroblasts) = test: XTT cell viability, FS (normal fibroblasts); details: Fibroblast; FS normal (non malignant) fibroblasts; XTT test; compound in 30 mM HEPES pH=7, 0.25 to 10 μM
Description: as §1, §2

CC(C)c1ccc(-c2cn3nc(N4CCC(CN5CCN(C)CC5)CC4)sc3n2)cc1 [Z522-0251, 6-(4-isopropyl-phenyl)-2-{4-[(4-methyl-piperazin-1-yl)methyl]piperidin-1-yl}imidazo[2,1-b][1,3,4]thiadiazole]
EC50 (Hep3B): 1000 to 2000 nM
EC50 (SW620): 500 to 1000 nM
EC50 (SW48): 500 to 1000 nM
EC50 (HT29): 2000 to 3000 nM
EC50 (RKO): 2000 to 3000 nM
EC50 (HCT116): 3000 to 4000 nM

CC(C)c1ccc(-c2cn3nc(N4CCN(CC5CCN(C)CC5)CC4)sc3n2)cc1 [Z522-0249, 6-(4-isopropylphenyl)-2-{4-[(1-methylpiperidin-4-yl)methyl]piperazin-1-yl}imidazo[2,1-b][1,3,4]thiadiazole]
EC50 (Hep3B): 1000 to 2000 nM
EC50 (FS (normal fibroblasts)): 10000 nM
EC50 (SW620): 500 to 1000 nM
EC50 (SW48): 500 to 1000 nM
EC50 (HT29): 2000 nM
EC50 (RKO): 1000 to 2000 nM
EC50 (HCT116): 3000 nM
